Reference: the supplement of paper PMC10733146

Columns and labels:
Assay in all cases: viability relative to DMSO control (fraction); higher = less drug effect (more viable cells)
Settings in all cases: 48 h
[1] = test system: primary AML patient cells (S081)
How it was run: (§1)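 Primary mononuclear tumour cells (Ficoll-isolated from blood or bone marrow, or processed lymph node; fresh or cryopreserved) were plated at 4 × 10^4 cells per well in 384-well plates with pre-plated compounds at five concentrations, one well each. Medium was RPMI-1640 with penicillin/streptomycin, L-glutamine and human serum, at 37 °C and 5% CO2 for 48 h. Viability was read as CellTiter-Glo luminescence relative to the median of 16 inner DMSO wells.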

[2] = test system: primary CLL patient cells (S043)
How it was run: as §1

[3] = test system: primary AML patient cells (S006)
How it was run: as §1

[4] = test system: primary FL patient cells (S022)
How it was run: as §1

[5] = test system: primary AML patient cells (S085)
How it was run: as §1

[6] = test system: primary CLL patient cells (S031)
How it was run: as §1

[7] = test system: primary AML patient cells (S021)
How it was run: as §1

[8] = test system: primary MCL patient cells (S068)
How it was run: as §1

[9] = test system: primary ALL patient cells (S048)
How it was run: as §1

[10] = test system: primary AML patient cells (S060)
How it was run: as §1

[11] = test system: primary AML patient cells (S056)
How it was run: as §1

[12] = test system: primary AML patient cells (S012)
How it was run: as §1

[13] = test system: primary B-PLL patient cells (S016)
How it was run: as §1

[14] = test system: primary AML patient cells (S011)
How it was run: as §1

[15] = test system: primary ALL patient cells (S088)
How it was run: as §1

[16] = test system: primary MCL patient cells (S053)
How it was run: as §1

[17] = test system: primary FL patient cells (S087)
How it was run: as §1

[18] = test system: primary MCL patient cells (S063)
How it was run: as §1

[19] = test system: primary AML patient cells (S017)
How it was run: as §1

[20] = test system: primary BL patient cells (S005)
How it was run: as §1

CC[C@H](Nc1ncnc2[nH]cnc12)c1nc2cccc(F)c2c(=O)n1-c1ccccc1 [Idelalisib]
viability ([1]; 0.0032 µM): 1.07 | viability ([1]; 0.016 µM): 1.04 | viability ([1]; 0.08 µM): 1.06 | viability ([1]; 0.4 µM): 1.07 | viability ([1]; 2 µM): 1.03 | viability ([2]; 0.0032 µM): 0.909 | viability ([2]; 0.016 µM): 0.805 | viability ([2]; 0.08 µM): 0.719 | viability ([2]; 0.4 µM): 0.745 | viability ([2]; 2 µM): 0.691 | viability ([3]; 0.0032 µM): 1.02 | viability ([3]; 0.016 µM): 0.97 | viability ([3]; 0.08 µM): 0.943 | viability ([3]; 0.4 µM): 0.885 | viability ([3]; 2 µM): 0.882 | viability ([4]; 0.0032 µM): 1.05 | viability ([4]; 0.016 µM): 1.09 | viability ([4]; 0.08 µM): 0.955 | viability ([4]; 0.4 µM): 0.939 | viability ([4]; 2 µM): 0.929 | viability ([5]; 0.0032 µM): 1.04 | viability ([5]; 0.016 µM): 0.844 | viability ([5]; 0.08 µM): 0.788 | viability ([5]; 0.4 µM): 0.82 | viability ([5]; 2 µM): 0.755 | viability ([6]; 0.0032 µM): 0.974 | viability ([6]; 0.016 µM): 0.861 | viability ([6]; 0.08 µM): 0.731 | viability ([6]; 0.4 µM): 0.654 | viability ([6]; 2 µM): 0.569 | viability ([7]; 0.0032 µM): 1.03 | viability ([7]; 0.016 µM): 0.928 | viability ([7]; 0.08 µM): 0.843 | viability ([7]; 0.4 µM): 0.827 | viability ([7]; 2 µM): 0.741 | viability ([8]; 0.0032 µM): 0.888 | viability ([8]; 0.016 µM): 0.755 | viability ([8]; 0.08 µM): 0.663 | viability ([8]; 0.4 µM): 0.612 | viability ([8]; 2 µM): 0.558 | viability ([9]; 0.0032 µM): 1.01 | viability ([9]; 0.016 µM): 0.934 | viability ([9]; 0.08 µM): 0.861 | viability ([9]; 0.4 µM): 0.751 | viability ([9]; 2 µM): 0.752 | viability ([10]; 0.0032 µM): 1.04 | viability ([10]; 0.016 µM): 1.02 | viability ([10]; 0.08 µM): 1.03 | viability ([10]; 0.4 µM): 1.08 | viability ([10]; 2 µM): 1.03 | viability ([11]; 0.0032 µM): 1.02 | viability ([11]; 0.016 µM): 1.02 | viability ([11]; 0.08 µM): 0.954 | viability ([11]; 0.4 µM): 0.896 | viability ([11]; 2 µM): 0.911 | viability ([12]; 0.0032 µM): 1.02 | viability ([12]; 0.016 µM): 0.982 | viability ([12]; 0.08 µM): 1.18 | viability ([12]; 0.4 µM): 1.04 | viability ([12]; 2 µM): 1.06 | viability ([13]; 0.0032 µM): 1.08 | viability ([13]; 0.016 µM): 0.889 | viability ([13]; 0.08 µM): 0.905 | viability ([13]; 0.4 µM): 0.794 | viability ([13]; 2 µM): 0.751 | viability ([14]; 0.0032 µM): 0.968 | viability ([14]; 0.016 µM): 0.873 | viability ([14]; 0.08 µM): 0.924 | viability ([14]; 0.4 µM): 0.88 | viability ([14]; 2 µM): 0.829 | viability ([15]; 0.0032 µM): 1.02 | viability ([15]; 0.016 µM): 0.948 | viability ([15]; 0.08 µM): 0.895 | viability ([15]; 0.4 µM): 0.914 | viability ([15]; 2 µM): 0.831 | viability ([16]; 0.0032 µM): 1.02 | viability ([16]; 0.016 µM): 0.96 | viability ([16]; 0.08 µM): 0.946 | viability ([16]; 0.4 µM): 0.877 | viability ([16]; 2 µM): 0.815 | viability ([17]; 0.0032 µM): 0.984 | viability ([17]; 0.016 µM): 0.923 | viability ([17]; 0.08 µM): 0.848 | viability ([17]; 0.4 µM): 0.78 | viability ([17]; 2 µM): 0.793 | viability ([18]; 0.0032 µM): 0.918 | viability ([18]; 0.016 µM): 0.792 | viability ([18]; 0.08 µM): 0.73 | viability ([18]; 0.4 µM): 0.693 | viability ([18]; 2 µM): 0.595 | viability ([19]; 0.0032 µM): 1.09 | viability ([19]; 0.016 µM): 1.1 | viability ([19]; 0.08 µM): 1.16 | viability ([19]; 0.4 µM): 0.988 | viability ([19]; 2 µM): 0.808 | viability ([20]; 0.0032 µM): 1 | viability ([20]; 0.016 µM): 0.95 | viability ([20]; 0.08 µM): 0.982 | viability ([20]; 0.4 µM): 1.01 | viability ([20]; 2 µM): 0.86

CC(C)C[C@H](NC(=O)CNC(=O)c1cc(Cl)ccc1Cl)B(O)O [Ixazomib]
viability ([1]; 0.008 µM): 0.987 | viability ([1]; 0.04 µM): 0.96 | viability ([1]; 0.2 µM): 0.901 | viability ([1]; 1 µM): 0.95 | viability ([1]; 5 µM): 0.981 | viability ([2]; 0.008 µM): 0.915 | viability ([2]; 0.04 µM): 0.73 | viability ([2]; 0.2 µM): 0.987 | viability ([2]; 1 µM): 0.74 | viability ([2]; 5 µM): 0.781 | viability ([3]; 0.008 µM): 0.929 | viability ([3]; 0.04 µM): 1 | viability ([3]; 0.2 µM): 0.924 | viability ([3]; 1 µM): 1.04 | viability ([3]; 5 µM): 1.01 | viability ([4]; 0.008 µM): 0.894 | viability ([4]; 0.04 µM): 1 | viability ([4]; 0.2 µM): 0.954 | viability ([4]; 1 µM): 0.999 | viability ([4]; 5 µM): 0.979 | viability ([5]; 0.008 µM): 0.842 | viability ([5]; 0.04 µM): 0.977 | viability ([5]; 0.2 µM): 0.807 | viability ([5]; 1 µM): 0.911 | viability ([5]; 5 µM): 1.08 | viability ([6]; 0.008 µM): 0.876 | viability ([6]; 0.04 µM): 1.04 | viability ([6]; 0.2 µM): 1.01 | viability ([6]; 1 µM): 1.05 | viability ([6]; 5 µM): 1.02 | viability ([7]; 0.008 µM): 0.927 | viability ([7]; 0.04 µM): 1 | viability ([7]; 0.2 µM): 0.983 | viability ([7]; 1 µM): 1.14 | viability ([7]; 5 µM): 1.09 | viability ([8]; 0.008 µM): 0.998 | viability ([8]; 0.04 µM): 0.9 | viability ([8]; 0.2 µM): 1.04 | viability ([8]; 1 µM): 1.04 | viability ([8]; 5 µM): 1.05 | viability ([9]; 0.008 µM): 1.04 | viability ([9]; 0.04 µM): 0.94 | viability ([9]; 0.2 µM): 0.961 | viability ([9]; 1 µM): 0.994 | viability ([9]; 5 µM): 1.05 | viability ([10]; 0.008 µM): 1.03 | viability ([10]; 0.04 µM): 0.988 | viability ([10]; 0.2 µM): 1.03 | viability ([10]; 1 µM): 1.02 | viability ([10]; 5 µM): 1.01 | viability ([11]; 0.008 µM): 0.755 | viability ([11]; 0.04 µM): 0.894 | viability ([11]; 0.2 µM): 1.11 | viability ([11]; 1 µM): 0.9 | viability ([11]; 5 µM): 0.893 | viability ([12]; 0.008 µM): 0.975 | viability ([12]; 0.04 µM): 0.971 | viability ([12]; 0.2 µM): 1.1 | viability ([12]; 1 µM): 1.01 | viability ([12]; 5 µM): 0.978 | viability ([13]; 0.008 µM): 0.929 | viability ([13]; 0.04 µM): 0.946 | viability ([13]; 0.2 µM): 0.987 | viability ([13]; 1 µM): 1 | viability ([13]; 5 µM): 0.913 | viability ([14]; 0.008 µM): 0.957 | viability ([14]; 0.04 µM): 1.15 | viability ([14]; 0.2 µM): 0.891 | viability ([14]; 1 µM): 1.06 | viability ([14]; 5 µM): 1.03 | viability ([15]; 0.008 µM): 0.741 | viability ([15]; 0.04 µM): 0.839 | viability ([15]; 0.2 µM): 0.793 | viability ([15]; 1 µM): 0.851 | viability ([15]; 5 µM): 0.996 | viability ([16]; 0.008 µM): 0.872 | viability ([16]; 0.04 µM): 0.954 | viability ([16]; 0.2 µM): 0.945 | viability ([16]; 1 µM): 0.972 | viability ([16]; 5 µM): 0.883 | viability ([17]; 0.008 µM): 0.91 | viability ([17]; 0.04 µM): 0.975 | viability ([17]; 0.2 µM): 0.978 | viability ([17]; 1 µM): 0.96 | viability ([17]; 5 µM): 0.982 | viability ([18]; 0.008 µM): 0.919 | viability ([18]; 0.04 µM): 1.02 | viability ([18]; 0.2 µM): 0.921 | viability ([18]; 1 µM): 0.993 | viability ([18]; 5 µM): 0.953 | viability ([19]; 0.008 µM): 0.923 | viability ([19]; 0.04 µM): 0.963 | viability ([19]; 0.2 µM): 0.834 | viability ([19]; 1 µM): 0.942 | viability ([19]; 5 µM): 0.979 | viability ([20]; 0.008 µM): 1.61 | viability ([20]; 0.04 µM): 0.944 | viability ([20]; 0.2 µM): 1.56 | viability ([20]; 1 µM): 0.939 | viability ([20]; 5 µM): 0.945
